What was measured:
spleen lymphocytes [1] = assay: In vitro lymphocyte stimulation assay, C57BL/6 spleen lymphocytes; format: cell-based, mice; conditions: for effect on response of the lymphocytes to PHA and Con-A: C57BL/6 spleen cells in vitro, Example 19
Description: (§1) The purpose of this assay is to challange lymphocytes in microcultures with one or more polyclonal mitogens at concentrations that will induce mitogenesis within 72 hours of stimulation.
(§2) In the mouse model, spleens were removed from different strains of mice and the spleen cells were teased free and suspended in RPMI-1640 tissue culture medium at a concentration of usually 1 x 10^7 ml. These cells were dispensed at a concentration of […] cells per microculture well in a 96 well flat bottom tissue culture plate. All testing of the compounds of this invention or mitogens were done in replicates of 10. The cells were then treated with PHA. Con-A, specific antigens, or buffer only. Where in vitro testing was done, varying concentrations of the compounds of this invention or buffer only were added to the cells as well. After treatment with the mitogens and/or compounds of this invention, the cells were incubated for 72 hours. The response of these cells to mitogens and/or the compounds of this invention was assessed using 14 C-thymidine labeling on the fourth day at a concentration of 0.01 microCi/well. The labeled cells were harvested using a lymphocyte harvestor and placed onto fibrous paper discs. A scintillation cocktail was added to vials containing the discs and the results were obtained using a LKB-liquid scintillation counter (Model 1216/Rackbeta II). The data is expressed as a ratio of the cpm (counts per minute) of the mitogen stimulated group to the control (non-mitogen) treated group = lymphocyte stimulation index (LSI).
(§3) The lymphocyte stimulation assay may be performed directly on spleen cells obtained from various strains of mice not treated with the compounds of this invention or on lymphocytes obtained from human plasma. In such experiments, the compounds of this invention were added directly to the spleen lymphcytes in vitro and the assay was completed and results interpreted. Alternatively. the mice may be treated in vivo with the compounds of this invention by intraperitoneal multi-dose schedules, followed by sacrifice and harvesting spleen lymphocytes. These cells were then tested for their response to polyclonal mitogens or specific antigens used to immunize the mice. In this system however, no additional compound was added to the in vitro lymphocyte stimulation assay system.

L-1210 leukaemia cells = assay: L-1210 leukaemia anti-cancer study (NCI protocol), BDF1 mice; format: in vivo; conditions: 20 mg/kg, seven days, Table 25
Text: Mice of the BDF1 strain were given an i.p. inoculation of 10^6 L-1210 leukaemia cells on day 0. Twenty-four hours later, groups of 7 mice each were started on a […] treatment regimen of various doses of the compounds of this invention. The experiment was continued according to the guidelines provided under the National Cancer Institute protocol for screening new anti-cancer agents; T/C ratios (median or mean survival time of treated groups over median or mean survival time of controls) were calculated. A T/C value > 1.25 (or 125%) is considered to indicate significant anticancer activity.
Mice of the BDF1 strain, inoculated with L-1210 leukaemia cells, were treated for seven days with either 25, 50, 100, 200 or 400 mg/kg of Cpd. 1 or just buffer. The National Cancer Institute protocol for screening new anti-cancer agents was followed and T/C ratios were calculated.
Mice of the BDFI strain, inoculated with L-1210 leukaemia cells, were treated for seven days with either 100 mg/kg of Cpd. 1, 20 mg/kg of 5-fluorouracil (5-FU), a known anti-cancer agent, or just buffer. The National Cancer Institute protocol for screening new anti-cancer agents was followed and T/C ratios are calculated.

spleen lymphocytes [2] = assay: Lymphocyte stimulation assay after in vivo treatment, C57BL/6 mice; conditions: for Lymphocyte Stimulation Index Con-A / Lymphocyte Stimulation Index Control / Lymphocyte Stimulation Index PHA: C57BL/6, Table 3-A
Description: as §1, §2, §3

human lymphocytes = assay: In vitro lymphocyte stimulation assay, human lymphocytes; format: cell-based; parameters: key to Lymphocyte Stimulation Index PHA / Lymphocyte Stimulation Index Con-A: ratio of cpm of mitogen-stimulated to non-mitogen control group (LSI); conditions: for Lymphocyte Stimulation Index Con-A / Lymphocyte Stimulation Index PHA: human, Table 6-A
Description: as §1, §2, §3
Lymphocytes isolated from 5 human volunteers were treated in vitro with PHA and Con-A and either 10^2, 10^3, 10^4, 5 x 10^4 or 10^5 ng/well of Cpd. 1, 10^2, 10^3, 10^4, 5 x 10^4, or 10^5 ng/well of AA, or buffer.

[3] = 1.392x10^4 ng/well, C57BL/6, Table 12-B
[4] = 1.74x10^3 ng/well, C57BL/6, Table 12-B
[5] = 3.48x10^3 ng/well, C57BL/6, Table 12-B
[6] = 6.96x10^3 ng/well, C57BL/6, Table 12-B
[7] = 8.7x10^2 ng/well, C57BL/6, Table 12-B
[8] = 1.04x10^3 ng/well in vitro, C57BL/6, Table 12-A
[9] = 1.66x10^4 ng/well in vitro, C57BL/6, Table 12-A
[10] = 2.08x10^3 ng/well in vitro, C57BL/6, Table 12-A
[11] = 4.15x10^3 ng/well in vitro, C57BL/6, Table 12-A
[12] = 8.3x10^3 ng/well in vitro, C57BL/6, Table 12-A

SMILES: O=C1CCC(=O)N1 [Succinimide, succinimide]
- Lymphocyte Stimulation Index Con-A (spleen lymphocytes [1]; [3]): 92.9
- Lymphocyte Stimulation Index Control (spleen lymphocytes [1]; [3]): 1.4
- Lymphocyte Stimulation Index PHA (spleen lymphocytes [1]; [3]): 17.1
- Lymphocyte Stimulation Index Con-A (spleen lymphocytes [1]; [4]): 83.4
- Lymphocyte Stimulation Index Control (spleen lymphocytes [1]; [4]): 1.1
- Lymphocyte Stimulation Index PHA (spleen lymphocytes [1]; [4]): 17.5
- Lymphocyte Stimulation Index Con-A (spleen lymphocytes [1]; [5]): 85.1
- Lymphocyte Stimulation Index Control (spleen lymphocytes [1]; [5]): 0.98
- Lymphocyte Stimulation Index PHA (spleen lymphocytes [1]; [5]): 18.1
- Lymphocyte Stimulation Index Con-A (spleen lymphocytes [1]; [6]): 71.9
- Lymphocyte Stimulation Index Control (spleen lymphocytes [1]; [6]): 1.1
- Lymphocyte Stimulation Index PHA (spleen lymphocytes [1]; [6]): 17.2
- Lymphocyte Stimulation Index Con-A (spleen lymphocytes [1]; [7]): 76.0
- Lymphocyte Stimulation Index Control (spleen lymphocytes [1]; [7]): 0.91
- Lymphocyte Stimulation Index PHA (spleen lymphocytes [1]; [7]): 19.5
- effect on response of the lymphocytes to PHA and Con-A (spleen lymphocytes [1]): no significant suppressive or enhancing effect

SMILES: O=C(O)CCC(=O)O [Succinic Acid, succinic acid]
- Lymphocyte Stimulation Index Con-A (spleen lymphocytes [1]; [8]): 64.6
- Lymphocyte Stimulation Index Control (spleen lymphocytes [1]; [8]): 0.94
- Lymphocyte Stimulation Index PHA (spleen lymphocytes [1]; [8]): 15.7
- Lymphocyte Stimulation Index Con-A (spleen lymphocytes [1]; [9]): 38.5
- Lymphocyte Stimulation Index Control (spleen lymphocytes [1]; [9]): 1.1
- Lymphocyte Stimulation Index PHA (spleen lymphocytes [1]; [9]): 11.5
- Lymphocyte Stimulation Index Con-A (spleen lymphocytes [1]; [10]): 51.1
- Lymphocyte Stimulation Index Control (spleen lymphocytes [1]; [10]): 1.0
- Lymphocyte Stimulation Index PHA (spleen lymphocytes [1]; [10]): 15.3
- Lymphocyte Stimulation Index Con-A (spleen lymphocytes [1]; [11]): 42.3
- Lymphocyte Stimulation Index Control (spleen lymphocytes [1]; [11]): 0.91
- Lymphocyte Stimulation Index PHA (spleen lymphocytes [1]; [11]): 14.0
- Lymphocyte Stimulation Index Con-A (spleen lymphocytes [1]; [12]): 35.6
- Lymphocyte Stimulation Index Control (spleen lymphocytes [1]; [12]): 0.91
- Lymphocyte Stimulation Index PHA (spleen lymphocytes [1]; [12]): 12.4
- effect on response of the lymphocytes to PHA and Con-A (spleen lymphocytes [1]): decrease in PHA and Con-A mitogenesis with increased succinic acid dosage

SMILES: O=c1[nH]cc(F)c(=O)[nH]1 [5-FU, 5-fluorouracil]
- Median Survival Time (L-1210 leukaemia cells): 30
- T/C (L-1210 leukaemia cells): 1.50

SMILES: O=C1O[C@H]([C@@H](O)CO)C(O)=C1O [AA, ascorbic acid]
- effect on lymphocyte response, Con-A stimulated group (spleen lymphocytes [2]; 50 mg/kg i.p. 4 days, C57BL/6): single stimulation of proliferation
- Lymphocyte Stimulation Index Con-A (spleen lymphocytes [2]; 50 mg/kg i.p. 4 days): 25.5
- Lymphocyte Stimulation Index Control (spleen lymphocytes [2]; 50 mg/kg i.p. 4 days): 0.56
- Lymphocyte Stimulation Index PHA (spleen lymphocytes [2]; 50 mg/kg i.p. 4 days): 17.1
- Lymphocyte Stimulation Index Con-A (spleen lymphocytes [2]; 100 mg/kg i.p. 4 days): 19.8
- Lymphocyte Stimulation Index Control (spleen lymphocytes [2]; 100 mg/kg i.p. 4 days): 1.8
- Lymphocyte Stimulation Index PHA (spleen lymphocytes [2]; 100 mg/kg i.p. 4 days): 17.1
- Lymphocyte Stimulation Index Con-A (spleen lymphocytes [2]; 200 mg/kg i.p. 4 days): 21.1
- Lymphocyte Stimulation Index Control (spleen lymphocytes [2]; 200 mg/kg i.p. 4 days): 1.3
- Lymphocyte Stimulation Index PHA (spleen lymphocytes [2]; 200 mg/kg i.p. 4 days): 10.0
- Lymphocyte Stimulation Index Con-A (spleen lymphocytes [2]; 400 mg/kg i.p. 4 days): 17.8
- Lymphocyte Stimulation Index Control (spleen lymphocytes [2]; 400 mg/kg i.p. 4 days): 1.3
- Lymphocyte Stimulation Index PHA (spleen lymphocytes [2]; 400 mg/kg i.p. 4 days): 14.3
- Lymphocyte Stimulation Index Con-A (spleen lymphocytes [2]; 800 mg/kg i.p. 4 days): 23.9
- Lymphocyte Stimulation Index Control (spleen lymphocytes [2]; 800 mg/kg i.p. 4 days): 0.50
- Lymphocyte Stimulation Index PHA (spleen lymphocytes [2]; 800 mg/kg i.p. 4 days): 12.1
- effect on lymphocyte response with PHA (spleen lymphocytes [2]; 50-800 mg/kg i.p. 4 days, C57BL/6): No statistically significant measureable effect
- Lymphocyte Stimulation Index Con-A (human lymphocytes; 5x10^4 ng/well in vitro): 23.31
- Lymphocyte Stimulation Index PHA (human lymphocytes; 5x10^4 ng/well in vitro): 35.93
- Lymphocyte Stimulation Index Con-A (human lymphocytes; 10^2 ng/well in vitro): 24.37
- Lymphocyte Stimulation Index PHA (human lymphocytes; 10^2 ng/well in vitro): 38.29
- Lymphocyte Stimulation Index Con-A (human lymphocytes; 10^3 ng/well in vitro): 24.76
- Lymphocyte Stimulation Index PHA (human lymphocytes; 10^3 ng/well in vitro): 34.69
- Lymphocyte Stimulation Index Con-A (human lymphocytes; 10^4 ng/well in vitro): 27.35
- Lymphocyte Stimulation Index PHA (human lymphocytes; 10^4 ng/well in vitro): 35.10
- Lymphocyte Stimulation Index Con-A (human lymphocytes; 10^5 ng/well in vitro): 25.18
- Lymphocyte Stimulation Index PHA (human lymphocytes; 10^5 ng/well in vitro): 34.23
- proliferative or anti-proliferative effect, PHA and Con-A (human lymphocytes; 10^2 to 10^5 ng/well, human lymphocytes in vitro): no significant proliferative or anti-proliferative effect
